Counter-ions that a name gives are not always drawn.
What was measured:
Format in all cases: functional
[1] = Growth inhibition of human breast cancer cell by NCI-CLS assay; conditions: Cancer cell lines; for CC50: read-out: LC50 (the source's name)
[2] = Growth inhibition of human prostate cancer cell by NCI-CLS assay; conditions: Cancer cell lines; for CC50: read-out: LC50 (the source's name)
[3] = Growth inhibition of human colon cancer cell by NCI-CLS assay; conditions: Cancer cell lines
NSCLC = test: Growth inhibition of human NSCLC cell by NCI-CLS assay
[4] = Growth inhibition of human CNS cancer cell by NCI-CLS assay; conditions: Cancer cell lines; for CC50: read-out: LC50 (the source's name)
[5] = Growth inhibition of human melanoma cell by NCI-CLS assay; conditions: for CC50: read-out: LC50 (the source's name)
[6] = Growth inhibition of human leukemia cell by NCI-CLS assay
[7] = Growth inhibition of human ovarian cancer cell by NCI-CLS assay; conditions: Cancer cell lines; for CC50: read-out: LC50 (the source's name)
[8] = Growth inhibition of human renal cancer cell by NCI-CLS assay; conditions: Cancer cell lines; for CC50: read-out: LC50 (the source's name)

SMILES	GI50 [1] [µM]	TGI [1] [µM]	GI50 [2] [µM]	TGI [2] [µM]	GI50 [3] [µM]	TGI [3] [µM]	GI50 (NSCLC) [µM]	TGI (NSCLC) [µM]	GI50 [4] [µM]	TGI [4] [µM]	GI50 [5] [µM]	TGI [5] [µM]	CC50 [5] [µM]	GI50 [6] [µM]	TGI [6] [µM]	GI50 [7] [µM]	TGI [7] [µM]	GI50 [8] [µM]	TGI [8] [µM]	CC50 [8] [µM]	further results
CC(C)(C)c1cc(/C=C2/C(=O)Nc3cccc(Cl)c32)c(O)c(/C=C2/C(=O)Nc3cccc(Cl)c32)c1	2.4	11.5	2.2	10.2	2.2	6.2	3.5	15.1	2.3	11	2.9	9.3	36.3	2.8	46.8	2.2	15.8	3.6	15.8	56.2	CC50 [1]: 67.6 µM; CC50 [2]: 72.4 µM; LC50 [3]: 21.9 µM; LC50 (NSCLC): 64.6 µM; CC50 [4]: 58.9 µM; CC50 [7]: 44.7 µM
COc1ccc2c(c1)/C(=C\c1ccccc1/C=C1/C(=O)Nc3ccc(OC)cc31)C(=O)N2	7.8	–	14.4	58.9	7.8	87.1	14.1	87.1	14.1	72.4	13.8	91.2	–	5.4	–	14.1	–	21.4	79.4	–	–
O=C1Nc2cccc(Cl)c2/C1=C\c1ccc2ccc3ccc(/C=C4/C(=O)Nc5cccc(Cl)c54)nc3c2n1	14.4	70.8	3.8	31.6	3.9	30.9	25.7	79.4	7.4	34.7	13.2	42.7	61.7	1.1	30.2	6.2	30.9	9.5	58.9	97.7	CC50 [1]: 93.3 µM; CC50 [2]: 79.4 µM; LC50 [3]: 79.4 µM; CC50 [4]: 77.6 µM; CC50 [7]: 70.8 µM
COc1ccc2c(c1)/C(=C\c1cc(C(C)(C)C)cc(/C=C3/C(=O)Nc4ccc(OC)cc43)c1O)C(=O)N2	5.5	31.6	4.8	24.5	6.3	19.9	8.7	32.4	4.8	21.4	4.4	13.2	39.8	3.9	43.6	5.9	25.1	7.2	22.4	61.7	CC50 [1]: 63.1 µM; CC50 [2]: 72.4 µM; LC50 [3]: 53.7 µM; LC50 (NSCLC): 69.2 µM; CC50 [4]: 66.1 µM; CC50 [7]: 61.7 µM
COc1ccc2c(c1)/C(=C\c1cc(OC)c(O)c(-c3cc(/C=C4/C(=O)Nc5ccc(OC)cc54)cc(OC)c3O)c1)C(=O)N2	13.8	–	10.5	–	10.5	75.9	21.9	95.5	6.8	87.1	10.7	93.3	–	6.9	89.1	15.1	–	20.9	95.5	–	–
COc1ccc2c(c1)/C(=C\c1ccc3ccc4ccc(/C=C5/C(=O)Nc6ccc(OC)cc65)nc4c3n1)C(=O)N2	3.9	75.9	3.7	36.3	2.8	16.2	3.2	28.2	3.8	–	3.2	11.5	74.1	3	60.3	5.5	58.9	3.3	19.5	97.7	LC50 (NSCLC): 75.9 µM
COc1ccc2c(c1)/C(=C\c1cccc(/C=C3/C(=O)Nc4ccc(OC)cc43)c1)C(=O)N2	1.2	5	1.7	4.1	1.7	7.4	3	11	1.4	4.3	1.2	2.9	30.2	1	11.5	2.1	6.3	2.5	6.2	79.4	CC50 [2]: 25.7 µM; LC50 [3]: 83.2 µM; LC50 (NSCLC): 85.1 µM; CC50 [4]: 29.5 µM; CC50 [7]: 95.5 µM
CC[C@]1(O)C[C@H]2CN(CCc3c([nH]c4ccccc34)[C@@](C(=O)OC)(c3cc4c(cc3OC)N(C=O)[C@H]3[C@@](O)(C(=O)OC)[C@H](OC(C)=O)[C@]5(CC)C=CCN6CC[C@]43[C@@H]65)C2)C1 [VINCRISTINE SULFATE]	0.3	7.9	0.1	6.3	0.1	4	0.2	15.8	0.1	6.3	0.2	7.9	–	0.1	15.8	0.3	19.9	0.3	19.9	–	–
O=C1Nc2c(ccc3ccccc23)/C1=C\c1cccc(/C=C2/C(=O)Nc3c2ccc2ccccc32)n1	17.8	69.2	21.9	81.3	14.4	44.7	24	57.5	15.8	49	13.8	38	77.6	1.5	10	19	56.2	17	41.7	79.4	CC50 [1]: 97.7 µM; LC50 [3]: 83.2 µM; LC50 (NSCLC): 89.1 µM; CC50 [4]: 85.1 µM; LC50 [6]: 77.6 µM; CC50 [7]: 91.2 µM
COc1ccc(OC)c2c1NC(=O)/C2=C/c1cccc(/C=C2/C(=O)Nc3c(OC)ccc(OC)c32)n1	0.7	17.4	0.5	3.4	0.5	1.9	0.9	18.6	0.7	3.6	0.7	2.2	13.5	0.4	8.7	0.8	11.2	0.7	2.5	18.2	CC50 [1]: 60.3 µM; CC50 [2]: 25.1 µM; LC50 [3]: 22.4 µM; LC50 (NSCLC): 85.1 µM; CC50 [4]: 21.9 µM; LC50 [6]: 64.6 µM; CC50 [7]: 27.5 µM
O=C1Nc2cccc(Cl)c2/C1=C\c1cccc(/C=C2/C(=O)Nc3cccc(Cl)c32)c1	2.4	13.2	1.5	16.2	2.6	14.8	4.2	20.4	1.7	13.5	3.2	16.6	34.7	1.3	9.8	2.7	14.4	2.3	9.3	36.3	CC50 [1]: 42.7 µM; CC50 [2]: 50.1 µM; LC50 [3]: 33.1 µM; LC50 (NSCLC): 42.7 µM; CC50 [4]: 38.9 µM; LC50 [6]: 27.5 µM; CC50 [7]: 41.7 µM
O=Cc1cccc(/C=C2/C(=O)Nc3c2ccc2ccccc32)n1	6.2	45.7	5.7	33.1	9.5	44.7	14.4	37.1	11.2	33.9	11.5	35.5	72.4	2.5	7.6	8.7	30.9	10.7	26.9	74.1	CC50 [1]: 79.4 µM; CC50 [2]: 97.7 µM; LC50 [3]: 83.2 µM; LC50 (NSCLC): 85.1 µM; CC50 [4]: 91.2 µM; CC50 [7]: 72.4 µM
O=C1Nc2cccc(I)c2/C1=C\c1cccc(/C=C2/C(=O)Nc3cccc(I)c32)n1	0.8	4.4	0.6	2.2	0.5	1.9	1.3	5	1.2	4	1	3.2	13.5	0.9	30.9	1.1	5.6	0.9	2.6	8.3	CC50 [1]: 21.9 µM; CC50 [2]: 24 µM; LC50 [3]: 7.6 µM; LC50 (NSCLC): 21.9 µM; CC50 [4]: 13.8 µM; CC50 [7]: 22.4 µM
O=C1Nc2cccc(F)c2C1=Cc1cccc(C=C2C(=O)Nc3cccc(F)c32)n1	0.8	10	1.4	12.9	0.7	3.3	2	10.2	1.1	5.7	0.9	2.8	–	0.8	9.8	1.6	8.5	1.1	3.8	–	–

— ChEMBL document CHEMBL1157784, “Antitumor activity and COMPARE analysis of bis-indole derivatives” (Bioorg Med Chem, 2010)
